pIC50: −log10 of the molar value. Entries after “also recorded” stand apart in the source; their conditions may differ.
Legend:
[1] = tested on: BT-20; assay: Cell viability assay (CCK-8), BT-20; format: cell-based; settings: Homo sapiens, TNBC cell line, CCK-8, 72 h, 0.156 to 40 μM
Protocol: (§1) Four human TNBC cell lines (MDA-MB-231, MDA-MB-453, SUM-159, and BT-20), a non-TNBC breast cancer cell line (MCF-7) and a normal mammary epithelial cell line (MCF-10A) were cultured with DMEM (phenol free) supplemented with 2.5% CS-FBS and 1% L-Glu. 1.2 × 10^3 of cells were seeded into 384-well microplates and maintained for 24 h in an incubator at 37 °C in a 5% CO2, saturated humidified atmosphere. Different compounds were added into cells with 9 concentrations from 0.156 to 40 μM for 72 h. […] Then CCK-8 solution was added into cells and incubated for another 4 h. Absorbance was measured with a Microplate Reader at 450/600 nm. The IC50 values of the compounds on TNBC cell lines were derived using GraphPad Prism 5.0 (GraphPad Software, Inc., La Jolla, CA, USA).

[2] = tested on: MDA-MB-453; assay: Cell viability assay (CCK-8), MDA-MB-453; format: cell-based; settings: Homo sapiens, TNBC cell line, CCK-8, 72 h, 0.156 to 40 μM
Protocol: as §1

[3] = tested on: MDA-MB-231; assay: Cell viability assay (CCK-8), MDA-MB-231; format: cell-based, human; settings: for pIC50: TNBC cell line, CCK-8, 72 h, 0.156 to 40 μM; for inhibition at 5 µg/mL: MDA-MB-231
Protocol: as §1, with “Different compounds were added into cells with 9 concentrations from 0.156 to 40 μM for 72 h.” left out

[4] = tested on: MCF-7; assay: Cell viability assay (CCK-8), MCF-7; format: cell-based, human; settings: for pIC50 / inhibition at 5 µg/mL: Homo sapiens; for pIC50: MCF7, 72 h, non-TNBC breast cancer cell line, CCK-8, 72 h; for inhibition at 5 µg/mL: MCF7
Protocol: as §1, with “Different compounds were added into cells with 9 concentrations from 0.156 to 40 μM for 72 h.” left out

[5] = tested on: SUM-159; assay: Cell viability assay (CCK-8), SUM-159; format: cell-based, human; settings: for pIC50: TNBC cell line, CCK-8, 72 h, 0.156 to 40 μM; for inhibition at 5 µg/mL: SUM159
Protocol: as §1, with “Different compounds were added into cells with 9 concentrations from 0.156 to 40 μM for 72 h.” left out

[6] = tested on: TNBC cell lines; assay: Cell viability assay, different TNBC cell lines; format: cell-based, human; settings: for pIC50: Homo sapiens
Protocol: as §1

[7] = tested on: MCF-10A; assay: Cell viability assay (CCK-8), MCF-10A; format: cell-based, human; settings: for pIC50: Homo sapiens, MCF-10A, normal mammary epithelial cell line, CCK-8, 72 h
Protocol: as §1

[8] = tested on: MDA-MB-436; assay: Cell viability assay, MDA-MB-436; format: cell-based; settings: Homo sapiens, TNBC cell line
Protocol: In addition to three TNBC cell lines (MDA-MB-231, MDA-MB-436, and SUM-159) and the breast cancer cell line MCF-7, we employed the normal mammary epithelial cell line MCF-10A, which was used for testing the compounds for their effects on normal breast cells (Table 6).
as §1

[9] = tested on: signal transducer and activator of transcription 3 (STAT3); design: method as in ref 21, 22 = [21]; 21. Tweardy D.J. Huang X. Kasembeli M.M. Stat3 Inhibitors W.O. Patent 2009149192 A1 10 12 2009 || [22]; 22. Tweardy D.J. Kasembeli M.M. Xu M.X. Eckols T.K. Methods and Compositions for Treatment of Muscle Wasting, Muscle Weakness, and/or Cachexia Using Inhibitors of Stat3 W.O. Patent 2015010107 A1 22 1; settings: antitumor agent; cited from earlier work
[10] = tested on: heme detoxification protein (HDP); design: method as in ref 20 = [20]; 20. Rathore D. Jani D. Nagarkatti R. HDP (Heme Detoxification Protein) Involved in Hemozoin Formation in Plasmodium and Theileria as an Anti-protozoal Target, and High-throughput Screening for Antimal; settings: cited from earlier work

Row | pIC50 [1] | pIC50 [2] | pIC50 ([3]; Homo sapiens, MDA-MB-231, 72 h) | pIC50 [4] | pIC50 [3] | pIC50 [8] | Structure (SMILES) | pIC50 ([5]; Homo sapiens, SUM159, 72 h) | fold reduced inhibitory activity compared to the ester compound (2-5) ([6]; both TNBC cell lines (MDA-MB-231, SUM-159)) | pIC50 [5] | inhibition at 5 µg/mL ([3]; Homo sapiens) | inhibitory effect on MCF-10A (in words) [7] | pIC50 [7] | inhibitory effect on MCF-7 (in words) [4] | pIC50 [6] | inhibition at 5 µg/mL ([5]; Homo sapiens) | inhibition of STAT3 (in words) [9] | antimalarial HDP inhibitor (in words) [10] | inhibition at 5 µg/mL [4]
1 | 4.87 | 5.50 | 5.36 | 4.85 |  |  | CCc1ccc(S(=O)(=O)Nc2cc(SCC(=O)O)c(O)c3ccccc23)cc1 [Compound 2-1] | 4.51 |  |  |  |  |  |  |  |  |  |  | 
2 | < 4.40 | 5.07 | 5.10 | < 4.40 |  |  | CC(=O)Oc1c(SCC(=O)O)cc(NS(=O)(=O)c2ccc(F)cc2)c2ccccc12 [Compound 2-3] | < 4.40 |  |  |  |  |  |  |  |  |  |  | 
3 |  |  | < 4.70 |  | ~4.62 |  | COc1ccc(S(=O)(=O)Nc2cc3c(C(=O)O)c(C)oc3c3ccccc23)cc1 [Compound 2-5-COOH] | < 4.70 | approximately 10 fold | 4.62 |  |  |  |  |  |  |  |  | 
4 | < 4.40 | 5.53 | 5.51 | < 4.40 |  | 5.70 | COC(=O)c1c(C)oc2c1cc(NS(=O)(=O)c1ccc(OC)cc1)c1ccccc12 [Compound 2-5] | 5.54 |  |  | 31% | no inhibitory activity | < 4.40 | no inhibitory effect; also recorded: no inhibitory activity | 5.52 to 5.70 | 56.8% |  |  | 
5 | 4.60 | 5.47 | 5.30 | < 4.40 |  |  | Cc1ccc(S(=O)(=O)Nc2cc(SCC(=O)O)c(O)c3ccccc23)cc1 [Compound 2-6] | 4.72 |  |  |  |  |  |  |  |  |  |  | 
6 | < 4.40 | 5.44 | 5.40 | < 4.40 |  |  | CC(C)c1ccc(S(=O)(=O)Nc2cc(SCC(=O)O)c(O)c3ccccc23)cc1 [Compound 2-7] | < 4.40 |  |  |  |  |  |  |  |  |  |  | 
7 | 5.00 | 5.51 | 5.53 | < 4.40 |  | 5.55 | CCOC(=O)c1c(C)oc2c1cc(NS(=O)(=O)c1ccc(OC)cc1)c1ccccc12 [Compound 2-8] | 5.60 |  |  | 62.9% | no inhibitory activity | < 4.40 | no inhibitory effect; also recorded: no inhibitory activity | 5.52 to 5.70 | 61.8% |  |  | 
8 | < 4.40 | 5.34 | 5.21 | < 4.40 |  |  | COc1ccc(S(=O)(=O)Nc2cc(Cl)c(O)c3ccccc23)cc1 [Compound 2-9] | 4.74 |  |  |  |  |  |  |  |  | inhibition |  | 
9 | < 4.40 | 5.24 | 5.16 | < 4.40 |  |  | CCOc1ccc(S(=O)(=O)Nc2cc(Cl)c(O)c3ccccc23)cc1 [Compound 2-11] | < 4.40 |  |  |  |  |  |  |  |  |  | inhibitor | 
10 |  |  | 5.49 |  |  | 5.47 | CCCCOC(=O)c1c(C)oc2c1cc(NS(=O)(=O)c1ccc(OC)cc1)c1ccccc12 [Compound 3-3] | 5.06 |  |  | 51.1% |  | < 4.40 |  |  | 42.1% |  |  | 29.7%
11 |  |  | 5.57 |  |  | 5.68 | CCOc1ccc(S(=O)(=O)Nc2cc3c(C(=O)OC)c(C)oc3c3ccccc23)cc1 [Compound 3-9] | 5.58 |  |  | 63% |  | < 4.40 |  |  | 60.8% |  |  | 24.3%
12 |  |  | 4.92 |  |  | 5.15 | COC(=O)c1c(C(C)(C)C)oc2c1cc(NS(=O)(=O)c1ccc(OC)cc1)c1ccccc12 [Compound 3-12] | 4.94 |  |  | 71.4% |  | < 4.40 |  |  | 90.4% |  |  | 76.3%
13 |  |  | 5.75 |  |  | ~8.00 | CCOc1ccc(S(=O)(=O)Nc2cc3c(C(C)=O)c(C)oc3c3ccccc23)cc1 [Compound 3-17] | 5.71 |  |  | 68.6% |  | 6.18 |  |  | 61% |  |  | 40.5%
14 |  |  | 5.26 |  |  | 5.85 | CCOC(=O)c1c(C)oc2c1cc(NS(=O)(=O)c1ccc(OCC)cc1)c1ccccc12 [Compound 3-37] | 5.39 |  |  | 59.7% |  | < 4.40 |  |  | 66.8% |  |  | 42.5%
15 | 4.97 | 5.64 |  |  |  |  | COc1ccc(S(=O)(=O)Nc2cc(SCC(=O)O)c(O)c3ccccc23)cc1 [Compound C10] |  |  |  |  |  |  |  |  |  |  |  | 
16 | < 4.40 | < 4.40 | < 4.40 | < 4.40 |  |  | COc1ccc(-c2oc3c(CCC(C)(C)O)c(O)cc(O)c3c(=O)c2O)cc1 [IC-163, reference compound] | < 4.40 |  |  |  |  |  |  |  |  |  |  | 
